Data taken from US4060652A (priority 1976, dated 1977).

Tests used:
[1] = Effect on sympathetic ganglia, third eyelid contraction in cats; assay type: in vivo; conditions: cat, in vivo, iv, read-out: ganglioblocking dose as multiple of myoparalytic dose
Experimental: (§1) Experiments were carried out on narcotized cats. A peripheral part of the sympathetic column on the neck was stimulated with electric pulses at 5 Hz. The duration of the stimulus was 1 msec, the amplitude 5 V. The contractions of the third eyelid (nictiating membrane) and the arterial (carotid) pressure were recorded with a mercury pressure gauge. We determined the intravenous dose of Tercuronium, α-tubocurarin and pancuronium that decreased the height of contraction of the third eyelid by 50 to 60 percent in conditions of prolonged stimulation of the sympathetic column.

sympathetic ganglia = assay: as above; assay type: in vivo
Experimental: as §1

CC[N+](CC)(CC)c1ccc(-c2ccc(-c3ccc([N+](CC)(CC)CC)cc3)cc2)cc1 [Tercuronium, p,p"-bis-triethylammonio-n-terphenyl dibenzenesulphonate]
selectivity ratio [1]: 10 to 15
arterial pressure at ganglioblocking dose (sympathetic ganglia): the arterial pressure dropped as well
